This passage reports MIC and Activity results from ChEMBL document CHEMBL1933046, “Synthesis and antibacterial activity of a novel series of acylides active against community acquired respiratory pathogens” (2012).

Converted amounts (≈) assume the structure as drawn. The source made the active and inactive calls. No cut-off for these calls is given here.

One experiment concerns Streptococcus pyogenes. Nature of the experiment: Antibacterial activity against Streptococcus pyogenes 19615 by NCCLS method. The experiment is classed as functional.
Experiment [1] deals with Streptococcus pneumoniae. Nature of the experiment: Antibacterial activity against telethromycin-resistant Streptococcus pneumoniae 3489 expressing erm gene by NCCLS method. The experiment is classed as functional.
Experiment [2] has as its system Streptococcus pneumoniae. The experiment is described as follows: Antibacterial activity against telethromycin-resistant Streptococcus pneumoniae 217 expressing erm gene by NCCLS method. The experiment is classed as functional.
Experiment [3] deals with Streptococcus pneumoniae. Nature of the experiment: Antibacterial activity against telethromycin-resistant Streptococcus pneumoniae 5099 expressing erm gene by NCCLS method. The experiment is classed as functional.
Experiment [4] has as its system Streptococcus pneumoniae. Nature of the experiment: Antibacterial activity against telethromycin-resistant Streptococcus pneumoniae 162 expressing erm gene by NCCLS method. The experiment is classed as functional.
Experiment [5] has as its system Streptococcus pneumoniae. Nature of the experiment: Antibacterial activity against Streptococcus pneumoniae 3579 expressing erm gene infected in mouse systemic infection model. Type of experiment: functional, organism-based.
Experiment [6] relates to Streptococcus pneumoniae. Nature of the experiment: Antibacterial activity against telethromycin-resistant Streptococcus pneumoniae 2840 expressing erm gene by NCCLS method. Type of experiment: functional.
A further experiment deals with Haemophilus influenzae. Nature of the experiment: Antibacterial activity against Haemophilus influenzae 38 by NCCLS method. The experiment is classed as functional.
Experiment [7] concerns Streptococcus pneumoniae. The experiment is described as follows: Antibacterial activity against Streptococcus pneumoniae 49619 by NCCLS method. The experiment is classed as functional.
Experiment [8] relates to Streptococcus pneumoniae. The experiment is described as follows: Antibacterial activity against telethromycin-resistant Streptococcus pneumoniae B739 expressing erm gene by NCCLS method. The experiment is classed as functional.
Experiment [9] has as its system Streptococcus pneumoniae. Nature of the experiment: Antibacterial activity against telethromycin-resistant Streptococcus pneumoniae 3488 expressing erm gene by NCCLS method. The experiment is classed as functional.
The test system of experiment [10] is Streptococcus pneumoniae. The experiment is described as follows: Antibacterial activity against telethromycin-resistant Streptococcus pneumoniae 3390 expressing erm gene by NCCLS method. Type of experiment: functional.
Experiment [11] concerns Streptococcus pneumoniae. Nature of the experiment: Antibacterial activity against telethromycin-resistant Streptococcus pneumoniae AB14 expressing erm gene by NCCLS method. Type of experiment: functional.
Experiment [12] concerns Streptococcus pneumoniae. The experiment is described as follows: Antibacterial activity against Streptococcus pneumoniae 6303 by NCCLS method. Type of experiment: functional.
Experiment [13] has as its system Streptococcus pneumoniae. Nature of the experiment: Antibacterial activity against Streptococcus pneumoniae 994 expressing mef gene by NCCLS method. The experiment is classed as functional.
Experiment [14] relates to Streptococcus pneumoniae. The experiment is described as follows: Antibacterial activity against telethromycin-resistant Streptococcus pneumoniae 3271 expressing erm gene by NCCLS method. Type of experiment: functional.
In experiment [15] the test system is Streptococcus pneumoniae. The experiment is described as follows: Antibacterial activity against Streptococcus pneumoniae 3579 expressing erm gene by NCCLS method. Type of experiment: functional.
A further experiment has as its system Moraxella catarrhalis. The experiment is described as follows: Antibacterial activity against Moraxella catarrhalis 8176 by NCCLS method. The experiment is classed as functional.
The test system of experiment [16] is Streptococcus pneumoniae. The experiment is described as follows: Antibacterial activity against telethromycin-resistant Streptococcus pneumoniae 757 expressing erm gene by NCCLS method. Type of experiment: functional.
Experiment [17] concerns Streptococcus pneumoniae. Nature of the experiment: Antibacterial activity against telethromycin-resistant Streptococcus pneumoniae 5051 expressing erm gene by NCCLS method. The experiment is classed as functional.

For the molecule `C=CCN(C)[C@H]1C[C@@H](C)O[C@@H](O[C@@H]2[C@@H](C)[C@H](OC(=O)Cc3cccnc3)[C@@H](C)C(=O)O[C@H](CC)[C@@]3(C)OC(=O)N(CCCCn4cnc5ncccc54)[C@@H]3[C@@H](C)C(=O)[C@H](C)C[C@@]2(C)OC)[C@@H]1O`, the MIC against Streptococcus pyogenes worked out at 0.06 µg/mL (≈ 0.0643 µM); in the experiment with Streptococcus pneumoniae [1] it was 0.5 µg/mL (≈ 0.536 µM); in the experiment on Streptococcus pneumoniae [2], 0.5 µg/mL (≈ 0.536 µM); with Streptococcus pneumoniae [3], 0.125 µg/mL (≈ 0.134 µM); in the experiment with Streptococcus pneumoniae [4] it was 1 µg/mL (≈ 1.07 µM); against Streptococcus pneumoniae [6] it was 0.5 µg/mL (≈ 0.536 µM). Besides, the MIC is 0.125 µg/mL (≈ 0.134 µM) in the experiment on Haemophilus influenzae; 0.03 µg/mL (≈ 0.0321 µM) in the experiment with Streptococcus pneumoniae [7]; 0.5 µg/mL (≈ 0.536 µM) against Streptococcus pneumoniae [8]; 0.25 µg/mL (≈ 0.268 µM) against Streptococcus pneumoniae [9]; 0.25 µg/mL (≈ 0.268 µM) against Streptococcus pneumoniae [10]; 0.125 µg/mL (≈ 0.134 µM) against Streptococcus pneumoniae [11]. Moreover, the MIC in the experiment with Streptococcus pneumoniae [12] worked out at 0.06 µg/mL (≈ 0.0643 µM); against Streptococcus pneumoniae [13], 0.06 µg/mL (≈ 0.0643 µM); against Streptococcus pneumoniae [14] it was 1 µg/mL (≈ 1.07 µM); against Streptococcus pneumoniae [15], 1 µg/mL (≈ 1.07 µM); in the experiment with Moraxella catarrhalis, 0.06 µg/mL (≈ 0.0643 µM); in the experiment with Streptococcus pneumoniae [16] it was 0.5 µg/mL (≈ 0.536 µM). In the experiment on Streptococcus pneumoniae [17], this molecule displayed an MIC of 0.25 µg/mL (≈ 0.268 µM). The outcome with Streptococcus pneumoniae [5] was Active.

As for `C=CCN(C)[C@H]1C[C@@H](C)O[C@@H](O[C@@H]2[C@@H](C)[C@H](OC(=O)Cc3ccccn3)[C@@H](C)C(=O)O[C@H](CC)[C@@]3(C)OC(=O)N(CCCCn4ccc5cccnc54)[C@@H]3[C@@H](C)C(=O)[C@H](C)C[C@@]2(C)OC)[C@@H]1O`, the MIC with Streptococcus pyogenes is 0.03 µg/mL (≈ 0.0322 µM); in the experiment on Streptococcus pneumoniae [1], 2 µg/mL (≈ 2.15 µM); with Streptococcus pneumoniae [2], 1 µg/mL (≈ 1.07 µM); against Streptococcus pneumoniae [3] it was 0.25 µg/mL (≈ 0.268 µM); with Streptococcus pneumoniae [4], 4 µg/mL (≈ 4.29 µM); in the experiment on Streptococcus pneumoniae [6], 2 µg/mL (≈ 2.15 µM). Besides, the MIC is under 0.06 µg/mL against Haemophilus influenzae; 0.03 µg/mL (≈ 0.0322 µM) in the experiment on Streptococcus pneumoniae [7]; 2 µg/mL (≈ 2.15 µM) against Streptococcus pneumoniae [8]; 0.5 µg/mL (≈ 0.536 µM) against Streptococcus pneumoniae [9]; 0.25 µg/mL (≈ 0.268 µM) with Streptococcus pneumoniae [10]; 0.25 µg/mL (≈ 0.268 µM) in the experiment on Streptococcus pneumoniae [11]. Moreover, the MIC amounted to 0.03 µg/mL (≈ 0.0322 µM) in the experiment with Streptococcus pneumoniae [12]; 0.25 µg/mL (≈ 0.268 µM) against Streptococcus pneumoniae [13]; 4 µg/mL (≈ 4.29 µM) in the experiment on Streptococcus pneumoniae [14]; 1 µg/mL (≈ 1.07 µM) in the experiment with Streptococcus pneumoniae [15]; 0.25 µg/mL (≈ 0.268 µM) in the experiment on Moraxella catarrhalis; 1 µg/mL (≈ 1.07 µM) with Streptococcus pneumoniae [16]. This molecule came in with an MIC in the experiment with Streptococcus pneumoniae [17] of 0.5 µg/mL (≈ 0.536 µM). Besides, in the experiment on Streptococcus pneumoniae [5], the result was Active.
